In US6294537A, “Compounds which are specific antagonists of the human NK3 receptor and their use as medicinal products and diagnostic tools” (Sanofi-Synthelabo, priority 1999, dated 2001):
Residues, ends and D or L forms follow the SMILES beside them. No end group written: not given here.

Tests used:
human NK3 receptor = target: T1, human NK3 receptor (Homo sapiens, UniProt P29371); assay: Binding of [125I]His[MePhe7]NKB to cloned human NK3 receptors expressed by CHO cells; settings: for Ki: cloned human NK3 receptors expressed by CHO cells, read-out: inhibition constant Ki, human NK3 receptor; for selectivity / specificity for the human NK3 receptor: from Ki at human NK3 versus rat NK2/NK1 receptors
T1 construct: expressed in transfected cells; host or cells: CHO cells
T1 sequence (P29371 1-465): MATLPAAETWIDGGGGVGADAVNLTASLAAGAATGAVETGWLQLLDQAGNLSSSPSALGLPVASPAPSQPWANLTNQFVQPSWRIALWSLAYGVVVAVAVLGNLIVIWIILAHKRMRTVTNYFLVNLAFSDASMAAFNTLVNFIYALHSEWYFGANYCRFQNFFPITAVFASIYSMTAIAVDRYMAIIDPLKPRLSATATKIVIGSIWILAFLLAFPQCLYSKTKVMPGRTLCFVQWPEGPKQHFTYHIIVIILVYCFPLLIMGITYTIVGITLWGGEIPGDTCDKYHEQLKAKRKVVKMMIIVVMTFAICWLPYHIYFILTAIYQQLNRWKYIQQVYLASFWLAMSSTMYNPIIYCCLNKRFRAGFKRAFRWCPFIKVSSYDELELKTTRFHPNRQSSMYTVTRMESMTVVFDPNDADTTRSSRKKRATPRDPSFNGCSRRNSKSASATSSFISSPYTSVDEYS
Protocol: (§1) The affinity of the compounds of formula (I') for the tachykinin receptors was evaluated in vitro by several biochemical assays using radioligands:
(§2) 3) The binding of [^125 I]His[MePhe^7 ]NKB to the NK3 receptors of rat cerebral cortex, of guinea pig cerebral cortex and of gerbil cerebral cortex as well as to the cloned human NK3 receptors expressed by CHO cells (Buell et al., FEBS Letters, 1992, 299, 90-95).
(§3) The assays were carried out according to X. Emonds-Alt et al. (Eur. J. Pharmacol., 1993, 250, 403-413).

[1] = target: T2, NK2 receptor of rat duodenum (Rattus norvegicus, UniProt P16610); assay: Binding of [125I]His-NKA to NK2 receptors of rat duodenum; settings: read-out: inhibition constant Ki, rat duodenum NK2 receptor
T2 construct: NK2 receptors of rat duodenum; from tissue; host or cells: rat duodenum
T2 sequence (P16610 1-390): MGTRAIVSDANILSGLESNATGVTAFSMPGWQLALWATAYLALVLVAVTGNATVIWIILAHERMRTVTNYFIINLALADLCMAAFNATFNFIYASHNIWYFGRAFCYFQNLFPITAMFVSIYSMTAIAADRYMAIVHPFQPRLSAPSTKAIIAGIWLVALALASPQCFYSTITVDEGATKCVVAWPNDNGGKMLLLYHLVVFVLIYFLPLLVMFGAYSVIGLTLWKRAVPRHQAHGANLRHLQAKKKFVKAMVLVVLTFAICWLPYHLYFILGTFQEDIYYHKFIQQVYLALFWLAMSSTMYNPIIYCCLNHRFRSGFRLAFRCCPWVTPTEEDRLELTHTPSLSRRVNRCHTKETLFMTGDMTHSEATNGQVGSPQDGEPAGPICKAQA
Protocol: as §1
2) The binding of [^125 I]His-NKA to the NK2 receptors of rat duodenum or of guinea pig ileum.
as §3

[2] = target: T3, NK1 receptors of rat cortex (Rattus norvegicus, UniProt P14600); assay: Binding of [125I]BH-SP to NK1 receptors of rat cortex; settings: read-out: inhibition constant Ki, rat cortex NK1 receptor
T3 construct: NK1 receptors of rat cortex; from tissue; host or cells: rat cortex
T3 sequence (P14600 whole entry): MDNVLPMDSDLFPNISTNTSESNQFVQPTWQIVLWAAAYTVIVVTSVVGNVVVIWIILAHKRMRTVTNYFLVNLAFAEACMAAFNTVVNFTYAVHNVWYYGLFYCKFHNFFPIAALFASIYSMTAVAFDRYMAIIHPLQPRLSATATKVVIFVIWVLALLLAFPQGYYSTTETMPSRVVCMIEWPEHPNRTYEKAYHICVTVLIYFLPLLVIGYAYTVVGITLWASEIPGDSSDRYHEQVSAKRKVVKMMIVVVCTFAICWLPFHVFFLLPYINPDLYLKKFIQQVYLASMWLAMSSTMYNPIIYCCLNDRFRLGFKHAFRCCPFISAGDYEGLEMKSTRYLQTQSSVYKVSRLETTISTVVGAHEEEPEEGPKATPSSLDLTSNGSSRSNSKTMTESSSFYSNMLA
Protocol: as §1
1) The binding of [^125 I]BH-SP (substance P labeled with iodine 125 with the aid of the Bolton-Hunter reagent) to the NK1 receptors of rat cortex, of guinea pig ileum and of human lymphoblastic cells.
as §3

NK3 receptor [3] = assay: Rotating behavior induced in gerbils by intrastriatal senktide; format: in vivo; settings: gerbil; unilateral application in the striatum
Protocol: (§4) The compounds according to the present invention were also evaluated in vivo on two animal models.

NK3 receptor [4] = assay: Hypertension induced in guinea pigs by intravenous or intracerebroventricular senktide; format: in vivo; settings: guinea pig; intravenous or intracerebroventricular injection
Protocol: as §4

rat NK3 receptor [5] = settings: literature, J. Autonomic Pharmacol. 1993; cited from earlier work
[6] = target: T4, NK3 receptors of rat cerebral cortex (Rattus norvegicus, UniProt P16177); assay: Binding of [125I]His[MePhe7]NKB to NK3 receptors of rat cerebral cortex; settings: read-out: inhibition constant Ki, rat NK3 receptor
T4 construct: NK3 receptors of rat cerebral cortex; from tissue; host or cells: rat cerebral cortex
T4 sequence (P16177 1-452): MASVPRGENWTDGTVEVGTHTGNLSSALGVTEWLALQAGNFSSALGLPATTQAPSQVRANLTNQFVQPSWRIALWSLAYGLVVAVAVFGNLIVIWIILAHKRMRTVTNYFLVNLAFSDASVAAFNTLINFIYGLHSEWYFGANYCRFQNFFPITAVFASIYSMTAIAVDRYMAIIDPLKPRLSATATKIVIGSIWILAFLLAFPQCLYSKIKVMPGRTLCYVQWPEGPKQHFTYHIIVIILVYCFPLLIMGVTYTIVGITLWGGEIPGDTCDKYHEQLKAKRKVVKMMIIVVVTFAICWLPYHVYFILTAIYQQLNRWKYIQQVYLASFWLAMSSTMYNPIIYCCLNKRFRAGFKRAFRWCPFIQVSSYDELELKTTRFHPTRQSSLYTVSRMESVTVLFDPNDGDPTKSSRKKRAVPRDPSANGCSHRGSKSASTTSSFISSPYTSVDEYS
Protocol: as §1, §2, §3

rat NK3 receptor [7] = settings: Patent Application EP 512901; read-out: Ki, antagonizes the binding of eledoisin; cited from earlier work

In the case of `CN(CC(CCCN1CCC(O)(c2ccccc2)CC1)c1ccc(Cl)c(Cl)c1)C(=O)c1ccccc1.Cl` (stereo not drawn) [Example 1, N-Methyl-N-[2-(3,4-dichlorophenyl)-5-(4-hydroxy-4-phenylpiperid-1-yl)pentyl]benzamide hydrochloride], the Ki (human NK3 receptor) is reported as 0.005 µM, the “selectivity / specificity for the human NK3 receptor” value (human NK3 receptor) is reported as “high specificity” and the Ki [1] is reported as 0.5 µM. The Ki [2] was 0.5 µM.
In the case of `CSCC[C@H](NC(=O)[C@H](CC(C)C)NC(=O)CNC(=O)[C@H](Cc1ccccc1)N(C)C(=O)[C@H](Cc1ccccc1)NC(=O)[C@H](CC(=O)O)NC(=O)CCC(=O)O)C(N)=O` [senktide] (HELM PEPTIDE1{[O=C(O)CCC(=O)[*:2]].D.F.[meF].G.L.M.[am]}$$$$V2.0), the “contralateral rotations induced by senktide” value (NK3 receptor [3]) is reported as “strong contralateral rotations” and the “hypertension induced by senktide” value (NK3 receptor [4]) is reported as “induces a hypertension”.
For “[Trp^7, Ala^8 ]NKA: A peptide antagonist, weakly specific for rat NK3 receptor (HKTDSFWALM; ends and bridges not checked; UniProt P20366 98-107, looked up, variant V7W G8A)”, the “specificity for rat NK3 receptor” value (rat NK3 receptor [5]) is given as “weakly specific”.
For `Cl.O=C1CCC(CCN2CCC(O)(c3ccccc3)CC2)(c2ccc(Cl)c(Cl)c2)CN1Cc1ccccc1` (stereo not drawn) [compound A, 5-[2-(4-hydroxy-4-phenylpiperid-1-yl)ethyl]-5-(3,4-dichlorophenyl)-1-benzylpiperid-2-one hydrochloride], the Ki (human NK3 receptor) was 0.001 µM, the “selectivity / specificity for the human NK3 receptor” value (human NK3 receptor) was “not selective” and the Ki [6] was 0.1 µM. The Ki [1] was 0.0001 µM and the Ki (rat NK3 receptor [7]) was 0.2 µM.
